Some test systems named below: NCI-H460 lung; HOP-92 NSCLC; OVCAR-8 ovarian; SK-OV-3 ovarian; NCI-H522 lung; SF-268 CNS; HT29 colon; ACHN renal; K-562 leukemia; UO-31 renal; SN12C renal; NCI/ADR-RES ovarian; EKVX NSCLC; HL-60(TB) leukemia; NCI-H23 lung; T-47D breast; SK-MEL-2 melanoma; DU-145 prostate; HCC-2998 colon.
Common to all, as to experiment: NCI tumour cell line growth inhibition, 48 h

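Briefly, cells in 96-well plates were exposed to five compound concentrations for 48 h, and endpoints were estimated by linear interpolation. TGI denotes the concentration required for complete inhibition of growth.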

Take `S=c1[nH]n2c(COc3cccc(OCc4nnc5sc(=S)[nH]n45)c3)nnc2s1`: the TGI in the assay with NCI-H460 lung, in the assay with HOP-92 NSCLC, in the assay on OVCAR-8 ovarian, in the assay with SK-OV-3 ovarian, with NCI-H522 lung and with SF-268 CNS was greater than 100 µM throughout. Moreover, the TGI with HT29 colon, in the assay with ACHN renal, with K-562 leukemia, in the assay with UO-31 renal, with SN12C renal and in the assay with NCI/ADR-RES ovarian was greater than 100 µM throughout. The TGI with EKVX NSCLC is greater than 100 µM; in the assay with HL-60(TB) leukemia it was 72.1 µM; with NCI-H23 lung it was greater than 100 µM; in the assay on T-47D breast, greater than 100 µM; in the assay on SK-MEL-2 melanoma, greater than 100 µM; in the assay with DU-145 prostate it was greater than 100 µM. In the assay on HCC-2998 colon, this compound registered a TGI greater than 100 µM.

Take `COc1ccc(CN(Cc2ccc(OC)cc2)C(=O)CC2(O)C=CCC2)cc1` (stereo unspecified): the TGI in the assay on NCI-H460 lung, with HOP-92 NSCLC, with OVCAR-8 ovarian, in the assay on SK-OV-3 ovarian, with NCI-H522 lung and in the assay with HT29 colon was greater than 100 µM throughout. Also, the TGI with ACHN renal, in the assay on K-562 leukemia, with UO-31 renal, in the assay with SN12C renal, in the assay with NCI/ADR-RES ovarian and in the assay with EKVX NSCLC was greater than 100 µM in each case. The TGI with HL-60(TB) leukemia, in the assay with NCI-H23 lung, in the assay on T-47D breast, with SK-MEL-2 melanoma, with DU-145 prostate and in the assay with HCC-2998 colon was greater than 100 µM in each case.

For `Cc1cc(C)nc(NS(=O)(=O)c2ccc(NNC(=O)c3cccc4c(=O)c5ccccc5[nH]c34)cc2)n1`, the TGI was greater than 100 µM in the assay on NCI-H460 lung; 73.8 µM with HOP-92 NSCLC; greater than 100 µM in the assay with OVCAR-8 ovarian; greater than 100 µM with SK-OV-3 ovarian; greater than 100 µM with NCI-H522 lung; greater than 100 µM in the assay with SF-268 CNS. Moreover, the TGI with HT29 colon, with ACHN renal, in the assay on K-562 leukemia, in the assay with UO-31 renal, in the assay with SN12C renal and in the assay with NCI/ADR-RES ovarian was greater than 100 µM throughout. In addition, the TGI in the assay on EKVX NSCLC is 98.9 µM; with HL-60(TB) leukemia, greater than 100 µM; with NCI-H23 lung, greater than 100 µM; with T-47D breast, greater than 100 µM; in the assay on SK-MEL-2 melanoma, 76.5 µM; with DU-145 prostate, greater than 100 µM. Besides, in the assay with HCC-2998 colon, the TGI is greater than 100 µM.

With `CCOP(=O)(O)C(C)(C)NC`, the TGI in the assay on NCI-H460 lung, in the assay on HOP-92 NSCLC, with OVCAR-8 ovarian, in the assay on SK-OV-3 ovarian, in the assay with NCI-H522 lung and with SF-268 CNS was greater than 100 µM each time. Moreover, the TGI in the assay on HT29 colon, with ACHN renal, with K-562 leukemia, with UO-31 renal, in the assay on SN12C renal and in the assay on NCI/ADR-RES ovarian was greater than 100 µM in each case. Also, the TGI with EKVX NSCLC, with HL-60(TB) leukemia, in the assay with NCI-H23 lung, in the assay with T-47D breast, with SK-MEL-2 melanoma and in the assay with DU-145 prostate was greater than 100 µM throughout. This compound also displayed a TGI in the assay with HCC-2998 colon greater than 100 µM.

`CCOC(=O)C1=C(N)Oc2ccc(Br)cc2C1C(C#N)C(=O)OCC` (stereo unspecified): the TGI in the assay on NCI-H460 lung is greater than 100 µM; with HOP-92 NSCLC, 37 µM; in the assay on OVCAR-8 ovarian it was 45.1 µM; in the assay on SK-OV-3 ovarian it was 47.1 µM; with NCI-H522 lung, 34.6 µM; in the assay on SF-268 CNS, 38.5 µM. For the same compound, the TGI in the assay with ACHN renal was 33.6 µM; in the assay with K-562 leukemia, greater than 100 µM; in the assay with UO-31 renal, 35.8 µM; in the assay with SN12C renal, greater than 100 µM; in the assay on NCI/ADR-RES ovarian, 41 µM; in the assay with EKVX NSCLC, greater than 100 µM. The TGI was greater than 100 µM with HL-60(TB) leukemia; 47.3 µM in the assay on NCI-H23 lung; 53.1 µM in the assay with T-47D breast; 39.1 µM with SK-MEL-2 melanoma; greater than 100 µM with DU-145 prostate; 32.7 µM in the assay with HCC-2998 colon.

For `CC1(C)OC2C(O)CN3CCS[C@H]3C2O1` (stereo partly specified), the TGI in the assay on NCI-H460 lung, in the assay with HOP-92 NSCLC, in the assay with OVCAR-8 ovarian, in the assay with SK-OV-3 ovarian, in the assay with NCI-H522 lung and in the assay on SF-268 CNS was greater than 100 µM in each case. Besides, the TGI in the assay with HT29 colon, with ACHN renal, in the assay on K-562 leukemia, with UO-31 renal, in the assay on NCI/ADR-RES ovarian and in the assay with EKVX NSCLC was greater than 100 µM throughout. Besides, the TGI in the assay with HL-60(TB) leukemia, in the assay with NCI-H23 lung, in the assay on T-47D breast, with SK-MEL-2 melanoma, in the assay with DU-145 prostate and with HCC-2998 colon was greater than 100 µM in each case.
